Assay results reported in patent US8557816B2, “Aurora kinase modulators and method of use” (Amgen Inc., priority 2007, dated 2013).
Like-named read-outs stand apart in the source and are kept apart here.

Columns and labels:
[1] = target: T1, AuroraB (Homo sapiens, UniProt Q96GD4); experiment: AuroraB Homogeneous Time Resolved Fluorescent (HTRF) kinase assay; assay type: biochemical
T1 construct: 20 μL of AuroraB FL H is for a final volume of 41 μL; His
Protocol: AuroraB-Homogeneous Time Resolved Fluorescent (HTRF) Kinase Assay:
The AuroraB HTRF assay begins with AuroraB in the presence of ATP phosphorylating the biotinylated peptide Histone H3. The reaction incubates for about 90 min. the reaction is quenched by addition of detection reagents, which stop the reaction by diluting out the enzyme and chelating the metals due to the presence of EDTA. After addition, the assay is incubated for about 60 min to allow detection reagents to equilibrate.
The AuroraB HTRF assay comprises 1 μL of compound in 100% DMSO, 20 μL of ATP and biotinylated Histone H3, and 20 μL of AuroraB FL H is for a final volume of 41 μL. The final concentration of Histone H3 is 0.1 μM. […] Buffer conditions are as follows: 50 mM HEPES pH 7.5, 5 mM NaCl, 0.5 mM MgCl, 0.5 mM MnCl, 2 mM DTT, 0.05% BSA.
(§1) The assay is quenched and stopped with 160 μL of detection reagent. Detection reagents are as follows: Buffer made of 50 mM Tris, pH 7.5, 100 mM NaCl, 3 mM EDTA, 0.05% BSA, 0.1% Tween20. Added to this buffer prior to reading is Steptavidin allophycocyanin (SA-APC) at a final conc in the assay of 0.001 mg/mL, and europilated anti-phosphoHistoneH3 Ab (Eu-anti-HisH3) at a final conc of 0.064 nM.
The assay plate is read in either a Discovery or a RubyStar. The eu-anti-HisH3 is excited at 320 nm and emits at 615 nm to excite the SA-APC which in turn emits at 655 nm.

[2] = target: T2, AuroraA-TPX2 (Homo sapiens, UniProt O14965); experiment: AuroraA-TPX2 Homogeneous Time Resolved Fluorescent (HTRF) kinase assay; assay type: biochemical; conditions: average; read-out: AurA_IC50_IP (uM Avg)
T2 construct: 20 μL of AuroraA-TPX2 KD GST for a final volume of about 41 μL; GST
T2 sequence (O14965 133-383 limits assumed): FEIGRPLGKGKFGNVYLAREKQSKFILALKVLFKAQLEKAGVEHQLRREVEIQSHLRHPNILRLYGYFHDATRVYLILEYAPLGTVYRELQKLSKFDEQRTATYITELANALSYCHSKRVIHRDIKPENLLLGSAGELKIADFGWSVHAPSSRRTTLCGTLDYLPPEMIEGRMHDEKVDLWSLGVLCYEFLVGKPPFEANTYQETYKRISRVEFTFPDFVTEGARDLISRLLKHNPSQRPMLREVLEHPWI
T2 sequence (Q9ULW0 1-43 partner limits assumed): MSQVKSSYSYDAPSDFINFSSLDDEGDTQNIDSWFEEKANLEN
Protocol: AuroraA-TPX2-Homogeneous Time Resolved Fluorescent (HTRF) Kinase Assay:
The Aurora-A HTRF assay begins with Aurora-A in the presence of ATP phosphorylating the biotinylated peptide PLK. The reaction incubates for about 120 min. Detection reagents are added to quench the reaction. These agents stop the reaction by diluting out the enzyme and chelating the metals due to the presence of EDTA. After addition, the assay is incubated overnight to allow the detection reagents to equilibrate.
The AuroraA HTRF assay comprises 1 μL of compound in 100% DMSO, 20 μL of ATP and biotinylated PLK, and 20 μL of AuroraA-TPX2 KD GST for a final volume of about 41 μL. The final concentration of PLK is about 1 μM. […] Buffer conditions are as follows: 60 mM HEPES pH 7.5, 25 mM NaCl, 10 mM MgCl, 2 mM DTT, 0.05% BSA.
as §1, with “0.0005” for “0.001”, “anti-phosphoPLK” for “anti-phosphoHistoneH3”, “(Eu-anti-PLK)” for “(Eu-anti-HisH3)”, “0.02” for “0.064”
The assay plate is read in either a Discovery or a RubyStar. The eu-anti-PLK is excited at 320 nm and emits at 615 nm to excite the SA-APC which in turn emits at 655 nm.

[3] = average, read-out: AurB_IC50_IP (uM Avg)

T1 sequence (Q96GD4 whole entry): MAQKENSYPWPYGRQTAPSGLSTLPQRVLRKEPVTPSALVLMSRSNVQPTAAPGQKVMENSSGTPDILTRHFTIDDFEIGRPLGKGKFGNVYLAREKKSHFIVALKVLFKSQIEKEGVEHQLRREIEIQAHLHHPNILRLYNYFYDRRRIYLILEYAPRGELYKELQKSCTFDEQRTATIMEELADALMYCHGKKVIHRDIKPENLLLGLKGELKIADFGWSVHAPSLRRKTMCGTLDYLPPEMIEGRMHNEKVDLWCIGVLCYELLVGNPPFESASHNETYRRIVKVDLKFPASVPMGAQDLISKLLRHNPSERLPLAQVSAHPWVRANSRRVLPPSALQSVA

Compound | IC50 [1, 3] | IC50 [2] | IC50 ([1]; given as class symbol, read-out: AurB_IC50_IP (class symbol))
COc1cnc2c(Oc3ccc(Nc4nnc(-c5nccn5C)c5ccccc45)cc3)ccnc2c1 [Example 30, N-(4-(7-methoxy-1,5-naphthyridin-4-yloxy)phenyl)-4-(1-methyl-1H-imidazol-2-yl)phthalazin-1-amine] |  | 1.39 µM | 
COc1ccc2c(Oc3ccc(Nc4nnc(-c5ccc(C(F)(F)F)cc5)c5ccccc45)cc3)c(F)cnc2c1 [Example 39, N-(4-(3-fluoro-7-methoxyquinolin-4-yloxy)phenyl)-4-(4-(trifluoromethyl)phenyl) phthalazin-1-amine] | 1 µM |  | 
N#Cc1ccc2c(Oc3ccc(Nc4nnc(-c5ccccc5)c5ccccc45)cn3)ccnc2c1 [compound 174, 4-(5-(4-phenylphthalazin-1-ylamino)pyridin-2-yloxy)quinoline-7-carbonitrile] | 5 µM |  | 
COc1cnc2c(Oc3ccc(Nc4nnc(-c5cccc(N6CCCCC6)c5)c5ccccc45)cc3)ccnc2c1 [compound 197, N-(4-((7-(methyloxy)-1,5-naphthyridin-4-yl)oxy)phenyl)-4-(3-(1-piperidinyl)phenyl)-1-phthalazinamine] |  | 0.034 µM | 
Cc1ccc(-c2nnc(Nc3ccc(Oc4ccnc5cc(-c6cncn6C)sc45)cc3)c3ccccc23)nc1 [compound 255, N-(4-((2-(1-methyl-1H-imidazol-5-yl)thieno[3,2-b]pyridin-7-yl)oxy)phenyl)-4-(5-methyl-2-pyridinyl)-1-phthalazinamine] |  | 0.005 µM | 
Cn1cncc1-c1cc2nccc(Oc3ccc(Nc4nnc(-c5ccc(Cl)cc5)c5ccccc45)cn3)c2s1 [compound 267, 4-(4-chlorophenyl)-N-(6-((2-(1-methyl-1H-imidazol-5-yl)thieno[3,2-b]pyridin-7-yl)oxy)-3-pyridinyl)-1-phthalazinamine] |  | 0.011 µM | 
COc1cc2nncc(Oc3ccc(Nc4nnc(-c5ccc(Cl)cc5)c5ccccc45)cc3)c2cc1OC [compound 282, N-(4-((6,7-bis(methyloxy)-4-cinnolinyl)oxy)phenyl)-4-(4-chlorophenyl)-1-phthalazinamine] | 0.189 µM |  | 
Fc1cc(F)c2c(Sc3ccc(Nc4nnc(-c5ccccc5)c5ccccc45)cc3)ccnc2c1 [compound 295, N-(4-((5,7-difluoro-4-quinolinyl)thio)phenyl)-4-phenyl-1-phthalazinamine] |  |  | < 0.1 µM
Fc1cc(F)c2c(Sc3ccc(Nc4nnc(-c5ccccc5)c5ccccc45)cc3)ccnc2c1 [compound 311, N-(4-((5,7-difluoro-4-quinolinyl)thio)phenyl)-4-phenyl-1-phthalazinamine] | 0.093 µM |  | 
Cc1noc(-c2cc3nccc(Sc4ccc(Nc5nnc(-c6ccccc6)c6ccccc56)cc4)c3s2)n1 [compound 318, N-(4-((2-(3-methyl-1,2,4-oxadiazol-5-yl)thieno[3,2-b]pyridin-7-yl)thio)phenyl)-4-phenyl-1-phthalazinamine] | 0.07 µM |  | 
CNC(=O)c1cc(Sc2ccc(Nc3nnc(-c4ccc(Cl)cc4)c4ccccc34)cc2)ccn1 [compound 360, 4-(4-(4-(4-chlorophenyl)phthalazin-1-ylamino)phenylthio)-N-methylpicolinamide] | 0.345 µM |  | 
Clc1ccc(-c2nnc(Nc3ccc(Oc4cnnc5ccc(Br)cc45)cc3)c3ccccc23)cc1 [compound 369, N-(4-(6-bromocinnolin-4-yloxy)phenyl)-4-(4-chlorophenyl)phthalazin-1-amine] | 3 µM |  | 

Other lines, results leading:

IC50 [1, 3] | IC50 [2] | IC50 ([1]; given as class symbol, read-out: AurB_IC50_IP (class symbol)) | Compound
0.018 µM | 0.139 µM |  | COc1cnc2c(Oc3ccc(Nc4nnc(-c5cccc(C#N)c5)c5ccccc45)cc3)ccnc2c1 [Example 29, 3-(4-(4-(7-methoxy-1,5-naphthyridin-4-yloxy)phenylamino)phthalazin-1-yl)benzonitrile]
0.008 µM | 0.033 µM |  | COc1cnc2c(Oc3ccc(Nc4nnc(C#CC(C)(C)C)c5ccccc45)cc3)ccnc2c1 [Example 31, 4-(3,3-dimethylbut-1-ynyl)-N-(4-(7-methoxy-1,5-naphthyridin-4-yloxy)phenyl)phthalazin-1-amine]
0.009 µM | 0.016 µM |  | COc1cnc2c(Oc3ccc(Nc4nnc(N5CCCCCC5)c5ccccc45)cc3)ccnc2c1 [Example 32, 4-(azepan-1-yl)-N-(4-(7-methoxy-1,5-naphthyridin-4-yloxy)phenyl)phthalazin-1-amine]
0.003 µM | 0.022 µM |  | Clc1ccc(-c2nnc(Nc3ccc(Sc4ccnc5cccnc45)cc3)c3ccccc23)cc1 [Example 33, N-(4-(1,5-naphthyridin-4-ylthio)phenyl)-4-(4-chlorophenyl)phthalazin-1-amine]
0.004 µM | 0.038 µM |  | COc1cnc2c(Nc3cnc(Nc4nnc(-c5ccccc5)c5ccccc45)nc3)ccnc2c1 [Example 36, N^5-(7-Methoxy-1,5-naphthyridin-4-yl)-N^2-(4-phenylphthalazin-1-yl)pyrimidine-2,5-diamine]
0.004 µM | 0.02 µM |  | COc1ccc(-c2nnc(Nc3ccc(Oc4ccnc5cc(OC)cnc45)cc3)c3ccccc23)cc1 [Example 37, N-(4-(7-methoxy-1,5-naphthyridin-4-yloxy)phenyl)-4-(4-methoxyphenyl)phthalazin-1-amine]
0.017 µM | 0.023 µM |  | COc1cnc2c(Oc3ccc(Nc4nnc(-c5ccc(C(C)(C)C)cc5)c5ccccc45)cc3)ccnc2c1 [Example 38, 4-(4-tert-butylphenyl)-N-(4-(7-methoxy-1,5-naphthyridin-4-yloxy)phenyl)phthalazin-1-amine]
0.007 µM | 0.044 µM |  | COc1cnc2c(Nc3ccc(Nc4nnc(-c5ccccc5)c5ccccc45)cc3)ccnc2c1 [Example 40, N^1-(7-methoxy-1,5-naphthyridin-4-yl)-N^4-(4-phenylphthalazin-1-yl)benzene-1,4-diamine]
0.009 µM | 0.079 µM |  | COc1cnc2c(Oc3ccc(Nc4nnc(-c5ccccc5)c5ccccc45)cn3)ccnc2c1 [Example 41, N-(6-(7-methoxy-1,5-naphthyridin-4-yloxy)pyridin-3-yl)-4-phenylphthalazin-1-amine]
0.002 µM | 0.011 µM |  | c1ccc(-c2nnc(Nc3ccc(Oc4ccnc5cc(N6CCOCC6)ccc45)cc3)c3ccccc23)cc1 [Example 42, N-(4-(7-Morpholinoquinolin-4-yloxy)phenyl)-4-phenylphthalazin-1-amine]
0.008 µM | 0.112 µM |  | CC(=O)Nc1ccc2nccc(Oc3ccc(Nc4nnc(-c5ccccc5)c5ccccc45)cc3)c2c1 [Example 43, N-(4-(4-(4-Phenylphthalazin-1-ylamino)phenoxy)quinolin-6-yl)acetamide]
0.07 µM |  |  | Cc1noc(-c2cc3nccc(Sc4ccc(Nc5nnc(-c6ccccc6)c6ccccc56)cc4)c3s2)n1 [compound 303, N-(4-((2-(3-methyl-1,2,4-oxadiazol-5-yl)thieno[3,2-b]pyridin-7-yl)thio)phenyl)-4-phenyl-1-phthalazinamine]
0.036 µM |  |  | Clc1ccc(-c2nnc(Nc3ccc(Sc4ccnc5ccccc45)cc3)c3ccccc23)cc1 [compound 333, 4-(4-chlorophenyl)-N-(4-(quinolin-4-ylthio)phenyl)phthalazin-1-amine]
0.045 µM |  |  | Clc1ccc(-c2nnc(Nc3ccc(CN4CCOc5ccccc54)cc3)c3ccccc23)cc1 [compound 349, 4-(4-chlorophenyl)-N-(4-((2,3-dihydrobenzo[b][1,4]oxazin-4-yl)methyl)phenyl)phthalazin-1-amine]
